From patent US20240124483A1, “Methods for the Treatment of Fibrotic Disease” (SHY Therapeutics, LLC, priority 2021, published 2024) come the findings set out here.

Structures are written as SMILES. Read-outs that look alike come from different tables or passages of the source.

Series [1] can be described thus: Assessment of Plasma Exposure in DBA/2J mice. The series is classed as in vivo, mouse. On the procedure: (§1) Experimental Design: Compound 9 was suspended in 0.5% Hydroxypropyl Methylcellulose (HPMC)/0.1% Tween® 80 to a final concentration of 10 mg/mL. The dosing solutions were prepared prior to the start of the test. Male DBA/2J mice (Jackson Stock No: 000671) were housed in solid bottom cages with standard chow and water ad libitum. Dosing was initiated when animals were 7-8 weeks old. Mice were dosed at a volume of 10 mL/kg by intraperitoneal (IP) injection at 100 mg/kg or vehicle. […] Blood was collected at 15 min, 30 min, 1 h, 2 h, 4 h, 7 h, 16 h, 24 h by cardiac puncture, mixed gently 8 times and put on ice until centrifuged within 30 minutes of collection. The plasma was transferred to a 96-well plate for analysis of test compound levels.
Preparation of Standard Solutions for Calibration of UPLC: Assay: 2 mg/mL in DMSO Stock solutions of reference standard of Compound 9 was freshly prepared. 15 uL of the 2 mg/mL DMSO stock solution of Compound 9 was spiked into a vial and diluted to a final volume of 1 mL (30 ug/mL). 100 uL of the 30 ug/mL solution was mixed with 900 uL methanol (final conc. 3 ug/mL). A calibration curve was obtained from solutions having concentrations of 0.001, 0.003, 0.01, 0.03, 0.1, 0.5 and 1 ug/mL, which were prepared further dilution of the 3 ug/mL solution with methanol. An internal standard of D3-desacetylDFZ (500 ng/mL in methanol) was used. • UPLC Conditions: • Column: Waters UPLC Acquity BEH C18 Column 2.1*50, 1.7 uM • Mobile phase: A: 0.1% formic acid in water; B: 0.1% formic acid in 100% acetonitrile • Gradient:
• Temperature: 50° C. • Run time: 2 min • Injection volume=2 uL • Instrument: Waters TQ-s • Desolvation Temperature: 500° C. • Desolvation gas flow: 1000 L/hr • Capillary Cone voltage: 0.5 • Reference batch: 21-hydroxy emflaza, Compound 9
Preparation of Samples for UPLC: Protein Precipitation Method Using Millipore Hydrophilic Plate (MSRLN04) to Filter the Precipitated Protein • 1) Plasma calibration curve for positively charged compound: all in the filter plate added • a) IS-410000 in acetonitrile (0.1 ug/mL) 200 uL • b) Calibration curve in methanol: 20 uL • c) Methanol: 20 uL • d) Control mouse plasma: 20 uL • 2) Test plasma • a) IS-410000 in acetonitrile (0.1 ug/mL) 200 uL • b) Calibration curve in methanol: 20 uL • c) Test plasma: 20 uL
Placed sample on automatic shaker for at least 5 min
Centrifuged at 2000 rpm (Eppendorf 5804) for 2 min. 2-2.5 uL supernatant were injected onto LCMS system

A short description of series [2]: Assessment of Plasma Exposure in DBA/2J mice. The format is in vivo, mouse. As to conditions: for half-life / AUC(0-t) / Cmax / AUC(0-inf) / Tmax: male, DBA/2J, mouse plasma; for half-life / AUC(0-t) / Cmax / AUC(0-inf): mouse, plasma, po; for AUC(0-inf): read-out: AUCINFobs.
Series [3] has as its system JNK. Kind of series: JNK Activation Assay in C2C12 (western blot). As to conditions: at 10 μM. Also noted: key: Y = yes; N = No. The format is cell-based, mouse. On the procedure:
Cell lines: Human tumor-derived pancreatic cancer cell line Panc-1 and mouse muscle myoblast C2C12 were purchased from American Type Culture Collection and grown in complete DMEM-High Glucose, supplemented with penicillin (100 U/mL), streptomycin (100 μg/mL), and 10% heat-inactivated FBS at 37° C. in a humidified incubator with 5% CO2.
Method: Cells were plated at 350000 cells/well density in a 12-well plate, allowed 3 hours to adhere to the plate, then starved in the appropriate medium in the presence of 0.5% FBS overnight. The small molecules to be tested were added to the cells in the final concentration of 10 μM in the presence of 0.3% DMSO for 3 hours incubation at 37° C. For IC50 value determination, serial dilutions of compounds were added to cells under the same conditions. […] Protein concentration was assessed by BCA protein assay (Thermo Scientific). Phosphorylation level of JNK was determined by western blot.
Western blot protocol: Equal amounts of protein (15-50 μg) were separated by SDS-PAGE and transferred to nitrocellulose membranes (Invitrogen by Thermo Fisher Scientific). […] Membranes were blocked with 10% milk and phosphorylation levels of Smad2, Smad3, INK and p38 were assessed by incubating overnight at 4° C. with the following antibody: Phospho-SAPK/JNK (Thr183/Tyr185), from Cell Signaling Technology. […]

A short description of series [4]: Observation for mortality and signs of pain or distress, DBA/2J mice. The series is classed as in vivo. As to conditions: male DBA/2J mice, single dose, up to 100 mg/kg. Here is the method:
as §1

Where [5] appears, read: male, DBA/2J, mouse, plasma, ip, 100 mg/kg, Group 5: 100 mg/kg IP, Vehicle 1, mouse plasma.
The mark [6] stands for this setting: 25 mg/kg, Group 2: 25 mg/kg PO, Vehicle 1.
Setting [7] is: 100 mg/kg, Group 3: 100 mg/kg PO, Vehicle 1.
Where [8] appears, read: 100 mg/kg, Group 4: 100 mg/kg PO, Vehicle 2.

Consider `COCCNc1nc(-c2nccn2C)nc2sc(-c3cccc(OC)c3Cl)c(-c3ccccc3)c12` [Compound 9, 6-(2-Chloro-3-methoxyphenyl)-N-(2-methoxyethyl)-2-(1-methyl-1H-imidazol-2-yl)-5-phenylthieno[2,3-d]pyrimidin-4-amine], for which the “Exposures, intraperitoneal (IP) injection compared to oral dosing” value in series [1] (Group 5 compared to Group 3, 100 mg/kg) is “higher”. In addition, the AUC(0-t) in series [1] (setting [5]) turned out to be 43000 ng·h/mL; in series [2] (setting [6]), 3880 ng·h/mL; in series [2] (setting [7]), 16700 ng·h/mL; in series [2] (setting [8]) it was 17100 ng·h/mL. For the same molecule, the Cmax stood at 26000 ng/mL in series [1] (setting [5]), 703 ng/mL in series [2] (setting [6]), 1960 ng/mL in series [2] (setting [7]) and 2090 ng/mL in series [2] (setting [8]). Moreover, the half-life was 2.96 h in series [1] (setting [5]); 2.9 h in series [2] (25 mg/kg, Group 2: 25 mg/kg PO, Vehicle 1 (0.5% HPMC with 0.1% Tween 80)); 2.11 h in series [2] (setting [7]); 2.3 h in series [2] (100 mg/kg, Group 4: 100 mg/kg PO, Vehicle 2 (Solubilized Lipid)). The AUC(0-inf) in series [1] (male, DBA/2J, mouse, plasma, ip, 100 mg/kg, Group 5: 100 mg/kg IP, Vehicle 1, mouse plasma, read-out: AUCINFobs) turned out to be 43200 ng·h/mL; in series [2] (setting [6]) it was 3900 ng·h/mL; in series [2] (setting [7]), 16700 ng·h/mL; in series [2] (setting [8]), 17200 ng·h/mL. For the same molecule, the Tmax in series [1] (male, DBA/2J, Group 5: 100 mg/kg IP, Vehicle 1, mouse plasma) came out at 0.25 h; in series [2] (Group 2: 25 mg/kg PO, Vehicle 1), 4 h; in series [2] (Group 3: 100 mg/kg PO, Vehicle 1) it was 4 h. For the same molecule, the “Exposures (AUC), dose dependence” value in series [2] (Groups 2 and 3: 25 and 100 mg/kg PO, Vehicle 1) is given as “dose proportional”. Besides, in series [2] (oral dosing (PO), 100 mg/kg), the “Exposures (AUC), Vehicle 1 compared to Vehicle 2” value was “similar”. Moreover, the “Activation of JNK in C2C12” value in series [3] was “Y”. For the same molecule, the “findings of overt toxicity” value in series [4] is recorded as “No findings of overt toxicity were observed”.
For `COCCNc1nc(-c2cn(C)cn2)nc2sc(-c3cccc(OC)c3Cl)c(-c3ccc(OC)cc3)c12` [Compound 8, 6-(2-Chloro-3-methoxyphenyl)-N-(2-methoxyethyl)-5-(4-methoxyphenyl)-2-(1-methyl-1H-imidazol-4-yl)thieno[2,3-d]pyrimidin-4-amine], the “Activation of JNK in C2C12” value in series [3] is “Y”.
